Measured values: article PMC4319692 (Molecular Pharmaceutics, 2014)

Experiment: Metabolic stability in human liver microsomes
Format: in vitro ADME
Settings: 10 μM, pooled human liver microsomes 1 mg/mL with cofactors, 2 h

C[C@]12CC[C@H]3[C@@H](CCC4=CC(=O)CC[C@@]43C)[C@@H]1CC[C@@H]2O [testosterone]
decrease (disappearance) of parent compound: more than 95%
